A value given as a limit tells only on which side of the number the result lay.

From US20080214394A1, “N-(4-Pyridyl)Methylsulfonamides For Combating Arthropodal Pests” (BASF Aktiengesellschaft, priority 2005, published 2008) come the findings set out here.

The test system of assay [1] is Boll Weevil (Anthonomus grandis). In words: whole plant or invertebrate. It counts as in vivo. Conditions: eggs sprayed with 20 μl, 3 to 5 days.
For assay [2], the system named is Tobacco Budworm (Heliothis virescens). In words: whole plant or invertebrate. The following applies: 144 h, eggs sprayed with 10 μl, 6 days. It is filed as in vivo.

Regarding `O=S(=O)(NCc1ccnc2ccccc12)c1ccc(Br)s1` [Compound I-70, 5-bromo-thiophene-2-sulfonic acid (quinoline-4-ylmethyl)-amide], the values for the mortality at 2500 ppm in assay [1] and in assay [2] were more than 50% and more than 75%, respectively.
